Laboratory results from patent publication US20220304957A1, “ANTI-CANCER COMPOSITIONS AND METHODS OF USE” (Board of Supervisors of Louisiana State University and …, priority 2019, published 2022).

Experiments:
[1] = system: mitochondrial respiration and glycolysis in LN-229 human glioblastoma cells; assay: Metabolic parameters, Extracellular Flux Analyzer (OCR/ECAR); format: cell-based; settings: 25 μM, LN229
Experimental: Metabolic responses of LN-229 human glioblastoma cells were evaluated with Extracellular Flux Analyzer XF24 (Seahorse Biosciences, North Billerica, Mass.). Prior each assay the cells were plated at 4×10^4 cells/well in 24-well plates in growth supporting media. At the time of measurement, growth media were replaced with serum-free XF medium (Seahorse) in cartridges equipped with oxygen-sensitive and pH-sensitive fluorescent probes. The oxygen consumption rate (OCR; indicative of mitochondrial respiration) and acidification rate (ECAR; indicative of glycolysis) were evaluated after injecting the following metabolic toxins: oligomycin, FCCP; rotenone; and antimycin A. Immediate metabolic effects were determined by comparing OCR and ECAR values in cells pre-incubated with DMSO (vehicle), or with PP1 and FF, all used at 25 μM. A: Representative experiment in which real OCR (pmol/min) and ECAR (mpH/min) values are shown. Other relevant metabolic parameters calculated from this experiment include ATP production, Spare Respiratory Capacity, basal OCR levels and proton leak. B: Average OCR and ECAR data (% change over basal OCR and ECAR values) from three independent experiments repeated 5 times (n=15).
Evaluation of metabolic parameters—Metabolic responses of human glioblastoma cells were evaluated with Extracellular Flux Analyzer XFe24 (Agilent Technologies). […]

[2] = system: LN229 human glioblastoma cell line; assay: Cell viability (MTT assay), LN229; format: cell-based; settings: MTT
[3] = mouse, in vivo; cited from earlier work
[4] = system: GL-261-luc mouse glioblastoma cell line; assay: Cell death, trypan blue, GL-261; settings: 5-50 μM, 96 h
Experimental: The percentage of cell death was calculated at 96-hour time point for all experimental conditions.

In the case of CN(CCO)C(=O)C(C)(C)Oc1ccc(C(=O)c2ccc(Cl)cc2)cc1 [PP1, 2-[4-(4-chlorobenzoyl)phenoxy]-N-(2-hydroxyethyl)-N,2-dimethylpropanamide], the “extracellular acidification rate (ECAR)” value [1] is reported as “corresponding increases in ECAR”, the “oxygen consumption rate (OCR)” value [1] is reported as “dramatic decrease of OCR values” and the “CV = Cell viability (% of control)” value ([2]; 1 μM) is reported as 98.36±1.61 % of control. For the same compound, the “CV = Cell viability (% of control)” value ([2]; 5 μM) was 70.03±2.04 % of control, the “CV = Cell viability (% of control)” value ([2]; 10 μM) was 43.67±1.88 % of control and the “brain penetration, concentration” value [3] was 5 µM. The “estimated log BB (from experiment)” value [3] was “zero” and the “in vitro cytotoxicity” value [4] was “high in vitro cytotoxicity”.
